Data published in patent publication US20010039287A1, “AROMATIC SULFONE HYDROXAMIC ACID METALLOPROTEASE INHIBITOR” (priority 1997, published 2001).
Like-named read-outs stand apart in the source and are kept apart here.

Legend:
TNFα = test: Tumor necrosis factor assay: TNFα ELISA on PMA-stimulated U-937 cell supernatant; settings: Homo sapiens, U-937, read-out: TNFα Release IC50 in micromolar
[1] = set-up: AUC (0-∞): unit not given beside the values; settings: for t½ Hour: Rat Intravenous 20 mpk
recombinant human MMP-9 = recombinant human MMP-9 (Homo sapiens, UniProt P14780); test: biochemical; settings: Inhibition Table B; read-out: MMP-9 IC50
Chain of recombinant human MMP-9 (P14780 107-707 limits assumed): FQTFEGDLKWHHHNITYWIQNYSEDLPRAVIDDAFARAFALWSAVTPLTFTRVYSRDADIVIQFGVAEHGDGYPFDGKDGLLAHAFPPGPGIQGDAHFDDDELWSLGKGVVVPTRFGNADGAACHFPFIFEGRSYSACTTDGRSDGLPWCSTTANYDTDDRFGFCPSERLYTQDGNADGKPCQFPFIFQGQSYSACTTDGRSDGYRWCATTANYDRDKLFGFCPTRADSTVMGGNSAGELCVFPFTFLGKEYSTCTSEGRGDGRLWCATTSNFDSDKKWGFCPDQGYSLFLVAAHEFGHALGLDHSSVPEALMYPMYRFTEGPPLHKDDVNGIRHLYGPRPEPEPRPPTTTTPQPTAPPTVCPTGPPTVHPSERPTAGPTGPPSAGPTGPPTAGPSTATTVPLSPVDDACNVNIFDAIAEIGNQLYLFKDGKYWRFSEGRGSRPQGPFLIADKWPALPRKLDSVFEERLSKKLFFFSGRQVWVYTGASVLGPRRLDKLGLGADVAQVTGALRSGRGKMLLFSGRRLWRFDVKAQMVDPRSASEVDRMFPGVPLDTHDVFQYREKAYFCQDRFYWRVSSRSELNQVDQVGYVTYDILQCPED

recombinant human MMP-1 = target: T1, recombinant human MMP-1 (Homo sapiens, UniProt P03956); test: biochemical; settings: Inhibition Table B; read-out: MMP-1 IC50
T1 construct: made in house; host or cells: transfected HT-1080 cells (provided by Dr. Harold Welgus, Washington University)
T1 sequence (P03956 100-469): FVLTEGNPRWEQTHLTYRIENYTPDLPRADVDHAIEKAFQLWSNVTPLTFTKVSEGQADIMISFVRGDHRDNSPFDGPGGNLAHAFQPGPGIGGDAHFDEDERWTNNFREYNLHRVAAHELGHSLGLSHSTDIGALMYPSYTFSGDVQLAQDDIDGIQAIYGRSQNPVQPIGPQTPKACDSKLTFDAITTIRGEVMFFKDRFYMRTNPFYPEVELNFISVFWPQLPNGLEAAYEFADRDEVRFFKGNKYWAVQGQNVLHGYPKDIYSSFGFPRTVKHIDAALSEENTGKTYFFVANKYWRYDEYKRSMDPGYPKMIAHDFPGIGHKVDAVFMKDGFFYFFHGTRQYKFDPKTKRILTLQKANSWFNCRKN

recombinant human MMP-13 = recombinant human MMP-13 (Homo sapiens, UniProt P45452); test: biochemical; settings: Inhibition Table B; read-out: MMP-13 IC50
recombinant human MMP-2 = target: T2, recombinant human MMP-2 (Homo sapiens, UniProt P08253); test: biochemical; settings: Inhibition Table B; read-out: MMP-2 IC50
T2 sequence (P08253 110-660): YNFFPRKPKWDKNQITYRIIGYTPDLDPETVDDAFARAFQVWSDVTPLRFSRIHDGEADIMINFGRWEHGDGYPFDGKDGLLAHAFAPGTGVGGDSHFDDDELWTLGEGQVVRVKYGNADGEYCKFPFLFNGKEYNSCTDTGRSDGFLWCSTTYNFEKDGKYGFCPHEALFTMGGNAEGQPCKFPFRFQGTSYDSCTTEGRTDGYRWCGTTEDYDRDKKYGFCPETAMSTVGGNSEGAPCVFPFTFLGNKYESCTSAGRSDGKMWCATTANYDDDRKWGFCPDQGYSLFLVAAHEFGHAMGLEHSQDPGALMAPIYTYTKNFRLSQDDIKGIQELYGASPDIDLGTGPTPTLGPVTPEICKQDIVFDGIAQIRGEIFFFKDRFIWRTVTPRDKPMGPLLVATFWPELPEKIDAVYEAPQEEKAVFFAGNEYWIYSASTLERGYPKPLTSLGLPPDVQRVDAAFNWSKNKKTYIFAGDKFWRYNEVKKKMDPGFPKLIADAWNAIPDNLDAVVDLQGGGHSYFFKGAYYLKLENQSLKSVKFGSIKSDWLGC

[2] = system: neovascularization of the corneal stroma; test: In vivo angiogenesis assay (corneal micropocket, bFGF pellet); settings: mouse corneal micropocket, 50 mpk bid po, day five, area of neovascularization vs control
Method: The study of angiogenesis depends on a reliable and reproducible model for the stimulation and inhibition of a neovascular response. The corneal micropocket assay provides such a model of angiogenesis in the cornea of a mouse. See, A Model of Angiogenesis in the Mouse Cornea; Kenyon, B M, et al., Investigative ophthalmology & Visual Science, July 1996, Vol. 37, No. 8.
In this assay, uniformLy sized Hydron™ pellets containing bFGF and sucralfate were prepared and surgically implanted into the stroma mouse cornea adjacent to the temporal limbus. […]
Mice were dosed on a daily basis for the duration of the assay. […] At day five, the degree of angiogenic inhibition was scored by viewing the neovascular progression with a slit lamp microscope.
The mice were anesthetized and the studied eye was once again proptosed. The maximum vessel length of neovascularization, extending from the limbal vascular plexus toward the pellet was measured. In addition, the contiguous circumferential zone of neovascularization was measured as clock hours, where 30 degrees of arc equals one clock hour. The area of angiogenesis was calculated as follows. […]
Five to six mice were utilized for each compound in each study. The studied mice were thereafter compared to control mice and the difference in the area of neovascularization was recorded as an averaged value. […]

[3] = system: PC-3 human pancreatic cancer cells (ATCC CRL 1435); test: In vivo PC-3 tumor reduction; set-up: species or system mouse; settings: PC-3 tumor in Balb/c nu/nu mice, day 25-30
Method: PC-3 human pancreatic cancer eclls (ATCC CRL 1435) were grown to 90% confluence in F12/MEM (Gibco) containing 7% FBS (Gibco). Cells were mechanically harvested using a rubber scraper, and then washed twice with cold medium. The resulting cells were resuspended in cold medium with 30% matrigel (Collaborative Research) and the cell-containing medium was maintained on ice until used.
Balb/c nu/nu mice at 7-9 weeks of age were anesthetized with avertin [2,2, 2-tribromethanol/t-amyl alcohol (1 g/l mL) diluted 1:60 into phosphate-buffered sline] and 3-5×10^6 of the above cells in 0.2 mL of medium were injected into the left flank of each mouse. Cells were injected in the morning, whereas dosing with an inhibitor began at 6 PM. The animals were gavaged BID from day zero (cell injection day) to day 25-30, at which time the animals were euthanized and tumors weighed.
Compounds were dosed at 10 mg/mL in 0.5% methylcellulose/0.1% polysorbate 80 to provide a 50 mg/kg (mpk) dose twice each day, or diluted to provide a 10 mg/kg (mpk) dose twice each day. Tumor measurements began on day 7 and continued every third or fourth day until completion of the study. Groups of ten mice were used in each study and nine to ten survived. Each group of mice so studied constitutes an “n” value of one, so that “n” values greater than one represent multiple studies whose averaged result is provided in the table. […]

[4] = system: solid tumor cancers (colorectal, pancreatic, ovarian, prostate); settings: cited from earlier work

O=C(NO)C1(S(=O)(=O)c2ccc(Oc3ccc(OC(F)(F)F)cc3)cc2)CCOCC1 [Example 69]
IC50 (TNFα): > 80 µM | AUC (0-∞) ([1]; rat, in vivo): 63.78 | Blood Level @ 3 min ([1]; rat, in vivo): 44000 ng/mL | Blood Level @ 3 min ([1]; rat, in vivo, iv, 20 mg/kg): 44000 ng/mL

O=C(NO)C1(S(=O)(=O)c2ccc(Sc3ccccc3)cc2)CCOCC1 [Example 95, Tetrahydro-N-hydroxy-4-[[4-(phenylthio)phenyl]sulfonyl]-2H-pyran-4-carboxamide]
IC50 (TNFα): > 50 µM | IC50 (recombinant human MMP-9): 3.6 nM | IC50 (recombinant human MMP-1): > 10000 nM | IC50 (recombinant human MMP-13): 0.5 nM | IC50 (recombinant human MMP-2): 1 nM | t½ Hour [1]: 1.06 h

O=C(NO)C1(S(=O)(=O)c2ccc(Oc3ccc(C(F)(F)F)cc3)cc2)CCOCC1 [Example 379]
IC50 (TNFα): 80 µM | t½ Hour [1]: 1.74 h

CNC(=O)[C@@H](NC(=O)[C@H](CC(C)C)[C@H](O)C(=O)NO)C(C)(C)C [marimastat]
Inhibition of Angiogenesis [2]: 48 (n = 6) percent | Average Percentage Reduction In Tumor Weight ([3]; 10 mpk BID gavage): <5 Percentage | Average Percentage Reduction In Tumor Weight ([3]; 50 mpk BID gavage): 39 (n = 2) Percentage | most common drug-related toxicity ([4]; clinical trials, patients): musculoskeletal pain and stiffness | cancer-specific antigens used as surrogate markers for biological activity ([4]; patients with advanced, rapidly progressive, treatment-refractory solid tumor cancers): dose-related reduction in the rise of cancer-specific antigens
